{"source": "patent US9510521B2", "about": "“Use of abscisic acid to alter sensory characteristics of red grapes and wine” (Valent BioSciences Corporation, priority 2007, dated 2016)", "key": {"Shiraz grapes [1]": {"tested_on": "Shiraz grapes", "assay": "Foliar S-ABA on Shiraz grapes about 3 weeks before veraison: grape quality at harvest and wine quality", "format": "in vivo", "details": "200 ppm foliar spray approx. 3 weeks prior to veraison", "experimental": "(§1) S-ABA (200 ppm) was applied by foliar spray using a standard vineyard airblast sprayer at 2000 L/ha to commercially grown Shiraz grapes approximately 3 weeks prior to initiation of veraison. The spray mix contained the surfactant/wetter Agral at 10 ml/100 L. Results reported are means of 4 replicates (grapes) and 3 replicates (wines) per treatment. Winemaking followed a standard small lot fermentation protocol with each replicate wine being made from 50 kg of harvested grapes.\nHowever, at-harvest grape anthocyanin and wine color density and total phenolics are increased by S-ABA."}, "[2]": {"tested_on": "Cabernet Sauvignon grapes", "assay": "Sensory panel rating of Cabernet Sauvignon wine from S-ABA treatment", "format": "in vivo, grape", "details": "1-5 scale, 1 = low/short, 5 = high/long", "experimental": "S-ABA (200 ppm) was applied by foliar spray to Cabernet Sauvignon grapes when sugar levels were approximately 11 Be using a standard vineyard airblast sprayer at approximately 2000 L/ha. The spray mix contained the surfactant/wetter Agral at 10 ml/100 L. Wine was prepared from the treated and untreated grapes."}, "Shiraz grapes [3]": {"tested_on": "Shiraz grapes", "assay": "Sensory panel of 6 assessors, Shiraz wine, drip irrigation S-ABA", "format": "in vivo, grape", "details": "0.4 grams per vine via drip irrigation", "experimental": "S-ABA (0.4 grams per vine) was applied to commercially grown Shiraz grapes through the drip irrigation system at approximately 3 weeks prior to initiation of veraison. No surfactant was added to the irrigation water. Results reported are means of 3 replicates. Winemaking followed a standard small lot fermentation protocol with each replicate wine being made from 50 kg of harvested grapes.\nTable 5 illustrates that S-ABA increased anthocyanin and phenolics of grape/juice at crush and wine color density and total phenolics and reduced wine hue. S-ABA had no effect on sugar, pH, or total acidity of grapes/juice at crush or on alcohol or pH of wine."}, "Shiraz grapes [4]": {"tested_on": "Shiraz grapes", "assay": "Sensory panel of 6 assessors, Shiraz wine, foliar S-ABA at veraison", "format": "in vivo, grape", "details": "200 ppm foliar spray at veraison", "experimental": "S-ABA (200 ppm) was applied by foliar spray at veraison to commercially grown Shiraz grapes through standard agricultural spray equipment on 12 Jan. 2007. Kendeen 20 (Tween 20) was added to the spray mix at 50 ml/100 L. Reported results are means of 3 replicates. Winemaking followed a standard small lot fermentation protocol with each replicate wine being made from 50 kg of harvested grapes."}, "Shiraz grapes [5]": {"tested_on": "Shiraz grapes", "assay": "Sensory profile of Shiraz wine from S-ABA-treated fruit, 10 experienced sensory assessors", "format": "in vivo, grape", "details": "200 ppm foliar spray, 10 assessors", "experimental": "as §1\nUsing a nine-point hedonic scale rating (dislike=1 to like=9) the sensors judged wine from the S-ABA treatment higher than the untreated (6.2 vs. 5.0, respectively) and thus a technically better wine."}}}
{"substance": "(S)-5-(1-hydroxy-2,6,6,-trimethyl-4-oxo-2-cyclohexen-1-yl)-3-methyl-(2Z,4E)-pentadienoic acid [S-ABA]", "values": [{"measurement": "Wine hue", "setting": "Shiraz grapes [1]", "value": 0.56}, {"measurement": "Body/fullness", "setting": "[2]", "value": 1.7}, {"measurement": "Flavor intensity", "setting": "[2]", "value": 2.7}, {"measurement": "Sensory panel of 6 assessors", "setting": "Shiraz grapes [3]", "value": "more intense fruit and was less acidic"}, {"measurement": "Sensory panel of 6 assessors", "setting": "Shiraz grapes [4]", "value": "more intense fruit, spice and herbaceous flavors and more tannin"}, {"measurement": "Aroma", "setting": "Shiraz grapes [5]; Shiraz wine sensory profile", "value": "more intense berry aroma"}, {"measurement": "Color", "setting": "Shiraz grapes [5]; Shiraz wine sensory profile", "value": "Increased intensity"}, {"measurement": "Taste", "setting": "Shiraz grapes [5]; Shiraz wine sensory profile", "value": "more fruity, more acidic taste"}, {"measurement": "Hedonic scale (1-dislike, 9 like)", "setting": "Shiraz grapes [5]; Shiraz wine, nine-point hedonic scale", "value": 6.2}]}
